Measurements as given in patent publication US20260308158A1, “TARGETING RNAS ASSOCIATED WITH TAUOPATHIES WITH SMALL MOLECULES” (University of Florida Research Foundation, Incorporated, priority 2023, published 2026).

Experiments:
WT SRE RNA = experiment: In vitro Chem-CLIP, WT SRE RNA; type: binding
Procedure: (§1) In Vitro Chemical Cross-linking and Isolation by Pull Down (Chem-CLIP) and Competitive Chem-CLIP (C-Chem-CLIP). Growth medium [Dulbecco's modified eagle medium (DMEM; corning, 10-013-CM) with 1× Glutagro (corning)] and 10% (v/v) fetal bovine serum (FBS; Sigma, 12003C) was inactivated by heating at 95° C. for 15 min and slowly cooling to room temperature. Approximately 10,000 counts of 32P 5′-end labeled tau WT, DDPAC, WT+I17T, or DDPAC+I17T RNA were folded in 10 μL growth medium by heating at 65° C. for 5 min and slowly cooling to room temperature. Chem-CLIP probe 3 or negative control probe 4 was then added into the folded RNA in a total volume of 20 μL, and the mixtures were incubated at 37° C. for 1 h. For C-Chem-CLIP, dilutions of competing compound 2 were incubated with RNA for 30 min before adding 3. […]
(§2) The Chem-CLIP probe 3 or control probe 4 was then clicked to disulfide biotin azide (2 μL of 10 mM solution prepared in DMSO solution per sample; Click Chemistry Tools, catalog no. 1168-10). […] The radioactive signal from bound RNAs (on the beads) and unbound RNAs (in the wash buffer) was measured by using a Beckman Coulter LS6500 Liquid Scintillation Counter as Rbound and Runbound. Enrichment was calculated as the percentage of radiolabeled RNA captured by beads calculated as Rbound/(Rbound+Runbound).

DDPAC SRE RNA = experiment: In vitro Chem-CLIP, DDPAC SRE RNA; type: binding
Procedure: as §1, §2

WT I17T mutant RNA = experiment: In vitro Chem-CLIP, WT I17T RNA; type: binding; settings: 50 μM
Procedure: as §1, §2

DDPAC I17T mutant RNA = experiment: In vitro Chem-CLIP, DDPAC I17T RNA; type: binding; settings: 50 μM
Procedure: as §1, §2

[1] = test system: WT MAPT mini-gene pre-mRNA; experiment: Chem-CLIP / C-Chem-CLIP in HeLa cells transfected with WT mini-gene; type: cell-based; settings: 3 at 1.5 μM, HeLa WT mini-gene
Procedure: (§3) Measuring Cellular Occupancy by Chem-CLIP and C-Chem-CLIP. LAN5 cells were grown to ~80% confluency in 100 mm diameter dishes. HeLa cells were transfected as described in the Luciferase Reporter Assay to Study Exon 10 Alternative Splicing except they were re-plated in 100 mm diameter dishes and grown to ~80% confluency (~1 day). The cells were then treated with 1.5 μM of 3 or 4 for 12 h. For C-Chem-CLIP, dilutions of competing compounds 1 or 2 were pre-incubated with cells for 12 h prior to adding 3. After addition of 3, the cells were incubated for an additional 12 h. After the treatment period, whether for Chem-CLIP or C-Chem-CLIP studies, the cells were washed with 10 mL of 1×DPBS. Ice-cold 1×DPBS (10 mL) was then added to the plate followed by irradiation with 365 nm light in a UV Stratalinker 2400 (Stratagene). Cells were scraped with a cell scraper, transferred to a 15 mL conical vial, and collected by centrifugation. Total RNA was extracted using TRIzol LS Reagent (Invitrogen) per the manufacturer's protocol. […]
(§4) RT-qPCR was performed on RNA samples before and after pull-down as described in Real-Time Quantitative PCR to enable calculation of fold enrichment in the pulled down samples. Relative fold enrichment of tau pre-mRNA was measured using Equation 3: […]

[2] = test system: DDPAC MAPT mini-gene pre-mRNA; experiment: Chem-CLIP / C-Chem-CLIP in HeLa cells transfected with DDPAC mini-gene; type: cell-based; settings: 3 at 1.5 μM, HeLa DDPAC mini-gene
Procedure: as §3, §4

[3] = test system: WT I17T MAPT mini-gene pre-mRNA; experiment: Chem-CLIP in HeLa cells transfected with WT I17T mini-gene; type: cell-based; settings: 1.5 μM
Procedure: as §3, §4

[4] = test system: DDPAC I17T MAPT mini-gene pre-mRNA; experiment: Chem-CLIP in HeLa cells transfected with DDPAC I17T mini-gene; type: cell-based; settings: 1.5 μM
Procedure: as §3, §4

[5] = test system: endogenous MAPT pre-mRNA in LAN5 cells; experiment: Chem-CLIP / C-Chem-CLIP in LAN5 cells; type: cell-based; settings: 3 at 1.5 μM
Procedure: as §3, §4

[6] = test system: MAPT pre-mRNA in LAN5 cells; experiment: Chem-CLIP-Map-Seq in LAN5 cells; type: cell-based; settings: 3 at 1.5 μM
Procedure: Chem-CLIP-Map-Seq. Chem-CLIP-Map-Seq was performed as previously described.^32 Briefly, LAN5 cells were grown to ~80% confluency in 100 mm diameter dishes and treated with 1.5 μM of 3 for 12 h. Total RNA was extracted and pulled down as described in Measuring Cellular Occupancy by Chem-CLIP and C-Chem-CLIP. RT was carried out using 1 μg of RNA pulled down by 3, […] of a MAPT gene-specific primer (5′-[…] (SEQ ID NO: 7)), and SuperScript III (Invitrogen, 18080400) in a total volume of 10 μL per the manufacturer's protocol.
After digestion with RNase A and RNase H (part of the Superscript III protocol), the cDNA from the RT reaction was cleaned up using RNA Clean XP beads (Beckman Coulter) according to the manufacturer's protocol. The purified cDNA was ligated to a 3′ ssDNA adaptor (5′-Phosphate-[…]-[…]-3C spacer (SEQ ID NO: 8)) by incubating 2 μL 10× T4 RNA Ligase Buffer, 1 μL of 1 mM ATP, 10 μL 50% (w/v) PEG 8000, 5 μL cDNA, 1 μL of 20 μM ssDNA adaptor, and 1 μL of T4 RNA Ligase [New England BioLabs, Inc. (NEB)]. The ligated cDNA was purified again with RNAClean XP beads as described above.
PCR amplification was performed with the purified ligated cDNA by using Phusion polymerase (NEB) with cycling conditions of 98° C. for 30 s, 65° C. for 20 s, and 72° C. for 60 s and forward (5′-[…] (SEQ ID NO: 9)) and reverse (5′-[…] (SEQ ID NO: 10)) primers for 25 cycles. […]

[7] = in vitro Chem-CLIP, read-out: IC50 for engaging and pull-down of RNA

C#CCCC1(CCC(=O)NCCN(CCCc2cnc(N)cc2OC)CCCn2cnc3c4ccccc4n(C)c3c2=O)N=N1 [Compound 3]
maximum percent pull-down (WT SRE RNA; 10 and 50 μM): ~ 40%
IC50 (WT SRE RNA; [7]): ~1000 nM
maximum percent pull-down (DDPAC SRE RNA; 10 and 50 μM): ~ 40%
IC50 (DDPAC SRE RNA; [7]): ~1000 nM
percent pull-down (engagement) (WT I17T mutant RNA): 15±0.9%
percent pull-down (engagement) (DDPAC I17T mutant RNA): 9±0.7%
enrichment of MAPT reporter [1]: 3.9±0.1 fold
enrichment of MAPT reporter [2]: 3.8±0.1 fold
enrichment of mutant reporter [3]: nor was enrichment observed
enrichment of mutant reporter [4]: nor was enrichment observed
enrichment of MAPT pre-mRNA [5]: 3.6±0.2 fold
cross-linking site in MAPT RNA [6]: cross-linking occurred to the G in the 5′ CG closing base pair of the A-bulge
